One test has as its target T1, Kv1.2 (Homo sapiens, UniProt P16389).
T1 construct: expressed in transfected cells; host or cells: Chinese Hamster Ovary (CHO)
The test is described as follows: cell-based. The settings on record: for IC50: CHO cells, whole-cell patch clamp, read-out: Potency IC50 (nM) Kv1.2. On the technique in general: The patch-clamp technique gives a direct electrical read-out from membranes.

Another test addresses T2, Kv1.6 (Homo sapiens, UniProt P17658).
T2 construct: expressed in transfected cells; host or cells: Chinese Hamster Ovary (CHO)
The test is described as follows: cell-based. As to conditions: for IC50: CHO cells, whole-cell patch clamp, read-out: Potency IC50 (nM) Kv1.6; for Selectivity Kv1.6/Kv1.3: ratio IC50[Kv1.6]/IC50[Kv1.3].

Another test deals with Rat whole blood (Rattus norvegicus, UniProt P15384).
Chain of Rat whole blood (P15384 whole entry): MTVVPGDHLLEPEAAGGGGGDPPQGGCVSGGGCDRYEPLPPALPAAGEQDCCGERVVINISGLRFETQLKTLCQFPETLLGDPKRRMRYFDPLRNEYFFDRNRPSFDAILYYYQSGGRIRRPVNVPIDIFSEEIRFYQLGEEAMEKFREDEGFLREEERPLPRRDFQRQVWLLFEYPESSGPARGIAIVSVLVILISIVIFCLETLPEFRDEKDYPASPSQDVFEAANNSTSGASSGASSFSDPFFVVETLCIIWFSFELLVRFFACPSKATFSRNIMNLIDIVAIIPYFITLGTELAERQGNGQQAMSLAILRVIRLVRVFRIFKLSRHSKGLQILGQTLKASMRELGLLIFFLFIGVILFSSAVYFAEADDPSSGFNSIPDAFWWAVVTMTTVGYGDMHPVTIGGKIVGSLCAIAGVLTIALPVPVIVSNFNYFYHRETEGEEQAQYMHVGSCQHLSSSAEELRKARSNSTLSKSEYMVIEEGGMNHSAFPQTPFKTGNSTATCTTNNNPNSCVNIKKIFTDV
In another test the target is T3, Kv1.3 (Homo sapiens, UniProt P22001).
T3 construct: expressed in transfected cells; host or cells: Chinese Hamster Ovary (CHO)
T3 sequence (P22001 whole entry): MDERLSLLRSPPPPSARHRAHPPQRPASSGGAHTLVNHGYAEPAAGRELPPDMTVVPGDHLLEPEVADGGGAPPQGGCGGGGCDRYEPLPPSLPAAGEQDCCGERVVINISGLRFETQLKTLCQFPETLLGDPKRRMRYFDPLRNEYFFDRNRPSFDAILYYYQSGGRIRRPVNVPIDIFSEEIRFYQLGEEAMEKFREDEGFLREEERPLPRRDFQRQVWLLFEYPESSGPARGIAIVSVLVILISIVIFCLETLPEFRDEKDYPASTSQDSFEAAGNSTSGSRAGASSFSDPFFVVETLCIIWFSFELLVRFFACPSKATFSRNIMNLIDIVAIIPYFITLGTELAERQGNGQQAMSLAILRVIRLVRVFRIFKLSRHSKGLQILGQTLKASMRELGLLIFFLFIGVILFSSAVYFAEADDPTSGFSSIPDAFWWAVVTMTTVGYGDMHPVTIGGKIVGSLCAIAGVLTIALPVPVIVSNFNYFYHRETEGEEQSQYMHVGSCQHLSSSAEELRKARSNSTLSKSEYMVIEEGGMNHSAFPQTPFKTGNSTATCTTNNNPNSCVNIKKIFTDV
The test is described as follows: cell-based. As to conditions: CHO cells, whole-cell patch clamp; read-out: Potency IC50 (nM) Kv1.3.

In test [1] the target is T4, human Kv1.3 voltage-gated K+ channel (Homo sapiens, UniProt P22001).
T4 construct: host or cells: CHO-DUKX
T4 sequence (P22001 whole entry): as above
The test is described as follows: cell-based. As to conditions: inhibition of thallium flux, CHO-DUKX cells with human Kv1.3; read-out: IC50.

The next test has as its target T5, Kv1.1 (Homo sapiens, UniProt Q09470).
T5 construct: expressed in transfected cells; host or cells: Chinese Hamster Ovary (CHO)
The test is described as follows: cell-based. The settings on record: for IC50: CHO cells, whole-cell patch clamp, read-out: Potency IC50 (nM) Kv1.1; for Selectivity Kv1.1/Kv1.3: ratio IC50[Kv1.1]/IC50[Kv1.3].

SMILES strings stand for the structures. Bridge positions count the residues as written; N and C are the ends. Square brackets hold non-standard residues; d marks the D form. Peptide text beside a SMILES is read from it. Phe(4-NH2) = Nc1ccc(C[C@H](N)C(=O)O)cc1; Nle = CCCC[C@H](N)C(=O)O

5 molecules from patent publication US11780893B2, “Kv1.3 blockers” (Zealand Pharma A/S, priority 2019, dated 2023) can be followed below.

T2 sequence (P17658 whole entry): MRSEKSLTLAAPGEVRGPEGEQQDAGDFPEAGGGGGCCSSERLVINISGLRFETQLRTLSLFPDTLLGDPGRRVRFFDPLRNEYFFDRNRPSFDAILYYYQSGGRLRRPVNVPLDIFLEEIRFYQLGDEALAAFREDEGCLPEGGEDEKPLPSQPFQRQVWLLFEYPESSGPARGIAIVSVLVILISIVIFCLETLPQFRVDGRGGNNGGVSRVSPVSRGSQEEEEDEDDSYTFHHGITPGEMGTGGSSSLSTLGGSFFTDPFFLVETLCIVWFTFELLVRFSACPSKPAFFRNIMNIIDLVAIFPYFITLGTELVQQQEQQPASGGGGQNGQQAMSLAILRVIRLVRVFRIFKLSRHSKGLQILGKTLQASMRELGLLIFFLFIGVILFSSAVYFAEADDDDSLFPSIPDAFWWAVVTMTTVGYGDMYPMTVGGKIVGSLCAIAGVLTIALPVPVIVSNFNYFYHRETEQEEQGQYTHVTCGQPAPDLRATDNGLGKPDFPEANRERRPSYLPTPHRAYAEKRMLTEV
T5 sequence (Q09470 whole entry): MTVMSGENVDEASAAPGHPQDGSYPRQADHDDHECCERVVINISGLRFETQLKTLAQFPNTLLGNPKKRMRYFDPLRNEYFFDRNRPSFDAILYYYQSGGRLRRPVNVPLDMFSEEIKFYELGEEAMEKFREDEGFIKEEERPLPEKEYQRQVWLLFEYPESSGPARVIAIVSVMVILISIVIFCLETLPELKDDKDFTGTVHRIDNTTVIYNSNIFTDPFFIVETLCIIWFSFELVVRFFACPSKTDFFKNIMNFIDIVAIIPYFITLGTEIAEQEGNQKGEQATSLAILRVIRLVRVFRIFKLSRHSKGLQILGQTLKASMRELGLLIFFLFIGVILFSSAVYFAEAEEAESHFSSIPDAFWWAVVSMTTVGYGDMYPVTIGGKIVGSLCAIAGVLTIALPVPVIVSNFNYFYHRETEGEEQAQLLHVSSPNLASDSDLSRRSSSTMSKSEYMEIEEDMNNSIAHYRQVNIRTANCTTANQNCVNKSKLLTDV
T1 sequence (P16389 whole entry): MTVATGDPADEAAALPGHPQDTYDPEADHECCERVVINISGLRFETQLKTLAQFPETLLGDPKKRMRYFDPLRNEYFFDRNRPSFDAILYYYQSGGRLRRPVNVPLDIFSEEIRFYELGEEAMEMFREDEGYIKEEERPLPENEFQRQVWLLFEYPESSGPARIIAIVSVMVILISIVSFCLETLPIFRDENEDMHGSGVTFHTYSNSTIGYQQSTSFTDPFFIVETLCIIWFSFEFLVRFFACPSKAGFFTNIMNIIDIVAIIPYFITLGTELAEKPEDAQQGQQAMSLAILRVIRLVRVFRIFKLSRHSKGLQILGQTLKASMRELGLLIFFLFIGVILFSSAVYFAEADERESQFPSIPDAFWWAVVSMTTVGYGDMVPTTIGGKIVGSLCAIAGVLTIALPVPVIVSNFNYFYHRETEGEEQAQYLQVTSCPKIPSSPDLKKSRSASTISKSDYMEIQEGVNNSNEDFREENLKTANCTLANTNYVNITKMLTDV

For orientation: IC50 means the concentration needed to halve the response being measured. For `CCCC[C@H](NC(=O)[C@@H]1CCCN1)C(=O)N[C@@H](CC(=O)O)C(=O)N[C@@H](CCCC)C(=O)N[C@@H](CCCNC(=N)N)C(=O)N[C@H]1CSSC[C@@H]2NC(=O)[C@H](CCCCN)NC(=O)CNC(=O)[C@H](Cc3ccccc3)NC(=O)[C@H]([C@@H](C)CC)NC(=O)[C@@H]3CSSC[C@@H](C(N)=O)NC(=O)[C@@H]4CCCN4C(=O)[C@H](Cc4ccc(O)cc4)NC(=O)[C@@H]4CSSC[C@H](NC(=O)[C@H](CCCCN)NC(=O)[C@H](CCC(N)=O)NC(=O)[C@H](CCCCN)NC(=O)[C@H](CSSC[C@H](NC(=O)[C@H](CCCCN)NC(=O)[C@H](CCCCN)NC(=O)[C@H](CC(N)=O)NC(=O)[C@H](CCCC)NC2=O)C(=O)N[C@@H](CCCCN)C(=O)N4)NC(=O)[C@H](CCC(=O)O)NC(=O)[C@H](C(C)C)NC(=O)[C@H](CO)NC(=O)[C@H](C)NC(=O)[C@H](CO)NC1=O)C(=O)N[C@@H](CC(C)C)C(=O)N[C@@H](CCCCN)C(=O)N[C@@H](C)C(=O)N[C@@H]([C@@H](C)CC)C(=O)NCC(=O)N3` [Compound 83] (H-P[Nle]D[Nle]RCSASVECKQKCLKAIGCIFGKC[Nle]NKKCKCYPC-NH2; disulfide 6-27, 12-32, 16-34, 22-37), the IC50 at Kv1.2 is 624 nM; on Kv1.6 it was 1220 nM; against Rat whole blood, ≤ 1 nM; at Kv1.3, 0.63 nM; in test [1] it was 0.12 nM; at Kv1.1 it was > 3000 nM. Further, the “Selectivity Kv1.2/Kv1.3” value at Kv1.2 (ratio IC50[Kv1.2]/IC50[Kv1.3]) came out at 995. Moreover, at Kv1.6, the “Selectivity Kv1.6/Kv1.3” value worked out at 1949. In addition, at Kv1.1, the “Selectivity Kv1.1/Kv1.3” value is given as >4800.
Turning to `CCCC[C@H](NC(=O)[C@H](CC(=O)O)NC(=O)[C@H](CCCC)NC(=O)[C@@H](N)CO)C(=O)N[C@@H](CCCNC(=N)N)C(=O)N[C@H]1CSSC[C@@H]2NC(=O)[C@H](CCCCN)NC(=O)CNC(=O)[C@H](Cc3ccccc3)NC(=O)[C@H]([C@@H](C)CC)NC(=O)[C@H](CO)NC(=O)CNC(=O)[C@H]([C@@H](C)CC)NC(=O)[C@H](C)NC(=O)[C@H](CCCCN)NC(=O)[C@H](CC(C)C)NC(=O)[C@@H]3CSSC[C@@H](C(=O)N[C@@H](Cc4ccc(O)cc4)C(=O)N4CCC[C@H]4C(=O)N[C@@H](CCCNC(=N)N)C(N)=O)NC(=O)[C@H](CCCCN)NC(=O)[C@H](CSSC[C@H](NC(=O)[C@H](CCC(=O)O)NC(=O)[C@H](C(C)C)NC(=O)[C@H](CO)NC(=O)[C@H](C)NC(=O)[C@H](CO)NC1=O)C(=O)NCC(=O)N[C@@H](CCC(N)=O)C(=O)N[C@@H](CCCCN)C(=O)N3)NC(=O)[C@H](CCCCN)NC(=O)[C@H](CCCCN)NC(=O)[C@H](CC(N)=O)NC(=O)[C@H](CCSC)NC2=O` [Compound 71] (H-S[Nle]D[Nle]RCSASVECGQKCLKAIGSIFGKCMNKKCKCYPR-NH2; disulfide 6-27, 12-32, 16-34), the IC50 was 373 nM at Kv1.2; > 3000 nM on Kv1.6; ≤ 1 nM against Rat whole blood; 0.11 nM at Kv1.3; 0.1 nM in test [1]; > 3000 nM on Kv1.1. Also, the “Selectivity Kv1.6/Kv1.3” value on Kv1.6 is >27700. Moreover, the “Selectivity Kv1.1/Kv1.3” value at Kv1.1 was >27700.
For `CC[C@H](C)[C@@H]1NC(=O)[C@H](C)NC(=O)[C@H](CCCCN)NC(=O)[C@H](CC(C)C)NC(=O)[C@@H]2CSSC[C@@H](C(=O)N[C@@H](Cc3ccc(O)cc3)C(=O)N3CCC[C@H]3C(=O)N[C@@H](CCCNC(=N)N)C(N)=O)NC(=O)[C@H](CCCCN)NC(=O)[C@@H]3CSSC[C@H](NC(=O)[C@H](CCC(=O)O)NC(=O)[C@H](C(C)C)NC(=O)[C@H](CO)NC(=O)[C@H](C)NC(=O)[C@H](CO)NC(=O)[C@@H](NC(=O)[C@H](CCCNC(=N)N)NC(=O)[C@H](CCSC)NC(=O)[C@H](CC(=O)O)NC(=O)[C@H](CCSC)NC(=O)[C@@H](N)CC(N)=O)CSSC[C@H](NC(=O)[C@H](CCCCN)NC(=O)CNC(=O)[C@H](Cc4ccccc4)NC(=O)[C@H]([C@@H](C)CC)NC(=O)[C@H](CO)NC(=O)[C@H](CCCNC(=N)N)NC1=O)C(=O)N[C@@H](CCSC)C(=O)N[C@@H](CC(N)=O)C(=O)N[C@@H](CCCCN)C(=O)N[C@@H](CCCCN)C(=O)N3)C(=O)N[C@@H](CCCCN)C(=O)N[C@@H](CCC(N)=O)C(=O)N[C@@H](CCCCN)C(=O)N2` [Compound 21] (H-NMDMRCSASVECKQKCLKAIRSIFGKCMNKKCKCYPR-NH2; disulfide 6-27, 12-32, 16-34), the concentration for half-maximal inhibition (IC50) at Kv1.2 is 57 nM; on Kv1.6 it was 626 nM; against Rat whole blood, ≤ 1 nM; at Kv1.3, 0.22 nM; in test [1], 0.12 nM; at Kv1.1, > 3000 nM. The “Selectivity Kv1.1/Kv1.3” value on Kv1.1 is recorded as >13700.
On to `CCCC[C@H](NC(=O)[C@H](CC(=O)O)NC(=O)[C@H](CCCC)NC(=O)[C@@H](N)CO)C(=O)N[C@@H](CCCNC(=N)N)C(=O)N[C@H]1CSSC[C@@H]2NC(=O)[C@H](CCCCN)NC(=O)CNC(=O)[C@H](Cc3ccccc3)NC(=O)[C@H]([C@@H](C)CC)NC(=O)[C@H](CO)NC(=O)CNC(=O)[C@H]([C@@H](C)CC)NC(=O)[C@H](C)NC(=O)[C@H](CCCCN)NC(=O)[C@H](CC(C)C)NC(=O)[C@@H]3CSSC[C@@H](C(=O)N[C@@H](Cc4ccc(N)cc4)C(=O)N4CCC[C@H]4C(=O)N[C@@H](CCCNC(=N)N)C(N)=O)NC(=O)[C@H](CCCCN)NC(=O)[C@H](CSSC[C@H](NC(=O)[C@H](CCC(=O)O)NC(=O)[C@H](C(C)C)NC(=O)[C@H](CO)NC(=O)[C@H](C)NC(=O)[C@H](CO)NC1=O)C(=O)N[C@@H](CCCCN)C(=O)N[C@@H](CCC(N)=O)C(=O)N[C@@H](CCCCN)C(=O)N3)NC(=O)[C@H](CCCCN)NC(=O)[C@H](CCCCN)NC(=O)[C@H](CC(N)=O)NC(=O)[C@H](CCSC)NC2=O` [Compound 70] (H-S[Nle]D[Nle]RCSASVECKQKCLKAIGSIFGKCMNKKCKC[Phe(4-NH2)]PR-NH2; disulfide 6-27, 12-32, 16-34), for which the IC50 at Kv1.2 is 423 nM; on Kv1.6, > 3000 nM; on Rat whole blood, ≤ 1 nM; at Kv1.3, 0.25 nM; in test [1], 0.13 nM; at Kv1.1, > 3000 nM. Moreover, the “Selectivity Kv1.6/Kv1.3” value on Kv1.6 was >12200. Further, the “Selectivity Kv1.1/Kv1.3” value on Kv1.1 is >12200.
Take `CC[C@H](C)[C@@H]1NC(=O)[C@H](C)NC(=O)[C@H](CCCCN)NC(=O)[C@H](CC(C)C)NC(=O)[C@@H]2CSSC[C@@H](C(=O)N[C@@H](Cc3ccc(O)cc3)C(=O)N3CCC[C@H]3C(=O)N[C@@H](CCCNC(=N)N)C(N)=O)NC(=O)[C@H](CCCCN)NC(=O)[C@@H]3CSSC[C@H](NC(=O)[C@H](CCC(N)=O)NC(=O)[C@H](C(C)C)NC(=O)[C@H](CO)NC(=O)[C@H](C)NC(=O)[C@H](CO)NC(=O)[C@@H](NC(=O)[C@H](CCCNC(=N)N)NC(=O)[C@H](CCSC)NC(=O)[C@H](CC(=O)O)NC(=O)[C@H](CCSC)NC(=O)[C@@H](N)CC(N)=O)CSSC[C@H](NC(=O)[C@H](CCCCN)NC(=O)CNC(=O)[C@H](Cc4ccccc4)NC(=O)[C@H]([C@@H](C)CC)NC(=O)[C@H](CO)NC(=O)CNC1=O)C(=O)N[C@@H](CCSC)C(=O)N[C@@H](CC(N)=O)C(=O)N[C@@H](CCCCN)C(=O)N[C@@H](CCCCN)C(=O)N3)C(=O)N[C@@H](CCCCN)C(=O)N[C@@H](CCC(N)=O)C(=O)N[C@@H](CCCCN)C(=O)N2` [Compound 28] (H-NMDMRCSASVQCKQKCLKAIGSIFGKCMNKKCKCYPR-NH2; disulfide 6-27, 12-32, 16-34): the IC50 at Kv1.2 was 16 nM; on Kv1.6 it was 252 nM; against Rat whole blood, ≤ 1 nM; at Kv1.3, 0.2 nM; in test [1] it was 0.064 nM; at Kv1.1, > 3000 nM. The “Selectivity Kv1.1/Kv1.3” value at Kv1.1 is reported as >15200.
